The values below are quoted from earlier work in patent US9928346B1, “Test panel to measure blood neurotoxin levels in prematernal women and for the general public in relation to mental disorders of the aging” (priority 2016, dated 2018).

The conditions of data set [1]: for an average man.
The conditions of data set [2]: for Minimum Risk Level: blood levels.
The conditions of data set [3]: orally consumed, toxicology assessment.

Where two headings read alike, the source gives them in different places.

Consider `[Mn+2]` [Manganese, manganese], for which the tentative dietary suggestions entry in data set [1] is listed as “about 10 mg/day”. Moreover, the “Minimum Risk Level” value in data set [2] is reported as less than 18 microgram per liter.

For `[Pb]` [Lead, lead], in data set [2], the “Minimum Risk Level” value was less than 50 microgram per liter.

Regarding `[AsH3]` [Arsenic, arsenic], the “Minimum Risk Level” value in data set [2] is on record as less than 10 microgram per liter.

On to `[Al]` [Aluminum, aluminum], for which the Minimum Risk Level in data set [3] is reported as 1.0 mg Al/kg body weight/day; in data set [2] it was less than 6 microgram per liter. In addition, the “absorption by the intestines” value (digested aluminum) is reported as 1%. For the same compound, the “absorbed in the blood” value (intravenous injection from a vaccine) is recorded as 100%. In addition, the “MRL for blood content” value in data set [2] (recommended by Mayo Clinic and Micro Trace Minerals diagnostic centers) is less than 6 microgram/liter.
